In patent US10206900B2, “Treatments for fibrotic diseases” (MOR RESEARCH APPLICATIONS LTD., priority 2013, dated 2019):

Legend:
[1] = system: p38; experiment: p38 phosphorylation by immuno-blot in RPE cells; assay type: cell-based; conditions: 1 μM for 1 hour then TGF-β 2.5 ng/ml
Procedure: (§1) FIG. 4A-4C: Inhibition of TAK1 abolishes the activation of TGF-β cascades. FIG. 4A: Serum-starved RPE cells were pretreated with or without with 5Z-7-oxozeaenol (1 μM) for 1 hour and then with TGF-β (2.5 ng/ml) for the indicated times. Total protein extracts were analyzed by western blot using the indicated antibodies. […] FIG. 4B: Levels of phospho-Smad2/3 were quantified and normalized to total Smad2/3 FIG. 4C: Statistical analysis of p-p38 and p-Smad3 activation normalized to p38 and Smad3 respectively, with or without TGF-β stimulation. The histograms present results of 5 independent experiments. Statistics were computed using student t-test (Two tailed distribution equal variance). Data is expressed as the Mean±SD. RPE cells were treated with or without 5Z-7-oxozeaenol followed by TGF-β1 treatment and Smad2/3 phosphorylation patterns were examined by immuno-blots. […] Upon TGF-β1 stimulation, the phosphorylation of p38 increased, reaching a peak at 60 min (FIGS. 4A and C).

[2] = system: RPE cells; experiment: Collagen lattice contraction upon TNFα stimulation; assay type: cell-based; conditions: 1 μM before 50 ng/ml TNFα, 72 hours
Procedure: FIG. 9: TAK1 regulates RPE cells contraction upon TNFα stimulation. […] RPE cells were seeded in collagen lattices in serum starvation medium. The cells were pretreated with 1 μM 5Z-7 or 1 hour before adding 50 ng/ml TNFα. Lattice were photo-documented after 72 hours and measured using ImajeJ software. The transition of RPE cells to myofibroblasts is characterized, among other aspects, by increased contractile activity (Umazume et al., Invest Ophthalmol Vis Sci 2013, 54:1150-1159; Sakamoto et al., Curr Eye Res 1994, 13:451-459; West-Mays et al., Int J Biochem Cell Biol 2006, 38:1625-1631; Ma et al., Clinical & experimental ophthalmology 2012, 40:e76-86). To examine whether TAK1 is a general regulator of the EMT process affecting cell contractility, floating collagen matrix contraction assay was performed. The test was carried out in full serum with or without TAK1 inhibitor (FIGS. 5A and 5B). While in the control cells significant contraction was observed after 24 hours, reaching 50% of the initial size, TAK1 inhibition impaired the capacity of the cells to contract. The collagen lattice remained nearly 80% from the initial size (FIGS. 5A and B).

[3] = system: RPE cells; experiment: Floating collagen matrix contraction assay in full serum; assay type: cell-based; conditions: 1 μM, full medium, 24 hours, control cells 50%
Procedure: FIG. 5A: RPE cells were pre-treated with or without 5Z-7-oxozeaenol (1 μM) and seeded in collagen lattices in full medium. The experiments were performed in triplicates. Lattices were photo-documented after 24 hours and measured using Image-J software. […] Bars are Mean±SD. The transition of RPE cells to myofibroblasts is characterized, among other aspects, by increased contractile activity (Umazume et al., Invest Ophthalmol Vis Sci 2013, 54:1150-1159; Sakamoto et al., Curr Eye Res 1994, 13:451-459; West-Mays et al., Int J Biochem Cell Biol 2006, 38:1625-1631; Ma et al., Clinical & experimental ophthalmology 2012, 40:e76-86). To examine whether TAK1 is a general regulator of the EMT process affecting cell contractility, floating collagen matrix contraction assay was performed. The test was carried out in full serum with or without TAK1 inhibitor (FIGS. 5A and 5B). While in the control cells significant contraction was observed after 24 hours, reaching 50% of the initial size, TAK1 inhibition impaired the capacity of the cells to contract. The collagen lattice remained nearly 80% from the initial size (FIGS. 5A and B).

[4] = system: E-cadherin; experiment: E-cadherin immunostaining in RPE cells; assay type: cell-based; conditions: 1 μM prior to TGF-β1 stimulation
Procedure: FIG. 3A: RPE cells were plated on fibronectin-coated glass coverslips, serum-starved for 16 hours, pretreated with 5Z-7-oxozeaenol (1 μM) or SB431542 (10 μM), or DMSO for 1 hour, then treated with or without TGF-β1 for 2 days. Following treatment, the cells were stained with rhodamine-phalloidin (actin fibers-red) and DAPI (blue) and visualized by confocal microscopy. Scale bars: […]. FIG. 3B: Serum-starved RPE cells pretreated with 5Z-7-oxozeaenol (1 μM) or DMSO for 1 hour, and were exposed to TGF-β as in FIG. 3A. Total RNA was extracted at each time point and qPCR was performed. Transcription levels of CTGF were determined after 6 h, 16 h and 24 h. Bars represent the specific mRNA amount relative to GAPDH mRNA in the same samples. All experiments were performed in triplicates. A representative histogram from two independent experiments is shown. FIG. 3C: RPE cells were plated and treated as in FIG. 3A. Following treatment, the cells were immunostained with E-cadherin antibodies (green) and DAPI (blue). Representative photographs of two independent experiments are shown. A recent publication has shown that down-regulation of the cell-cell adhesion protein E-cadherin, was considered a hallmark of EMT in RPE cells ([…] et al., Invest Ophthalmol Vis Sci 2010, 51:2755-2763). […]

[5] = system: aortic ring explants; experiment: Aortic ring assay ex vivo; conditions: aortic ring explants in Matrigel, 1 μM, 8 days
Procedure: FIG. 15: TAK1 regulates the fibrotic switch in aortic injury ex vivo. aortic ring explants were seeded in Matrigel with or without 5z-7 (1 μM) for 8 days and then photo-documented. The photographs shown are representative from one of three independent experiments (N=9). As can been in the control aortic ring explants there is growth of sprouts due to the injury/fibrotic process.

[6] = system: Smad2/3; experiment: Smad2/3 phosphorylation by immuno-blot in RPE cells; assay type: cell-based
Procedure: as §1

[7] = system: Smad2/3; experiment: Smad2/3 phosphorylation by immuno-blot in HT29 colon cells; assay type: cell-based; conditions: HT29 Human colon cells, TGF-β treatment, versus untreated cells
Procedure: FIG. 11. Inhibition of TAK1 abolishes the activation of TGF-β cascades in colon cells. TGF-β1 up-regulates-Smad 2/3 and p38 activation via TAK1 activity in colon cells. HT29 Human colon cells were treated with or without 5Z-7-oxozeaenol followed by TGF-β treatment. Smad2/3 and p38 phosphorylation patterns were examined by immuno-blots. HT29 Human colon cells were treated as in the previous examples with or without 5Z-7-oxozeaenol, followed by TGF-β treatment. Inhibition of TAK1 was assayed by observation of Smad2/3 and p38 phosphorylation patterns by immuno-blots.

## COc1cc(O)c2c(c1)/C=C/C[C@H](O)[C@H](O)C(=O)/C=C\C[C@H](C)OC2=O [5Z-7-oxozeaenol]
[1]
  p38 activation (phosphorylation) upon TGF-β1 stimulation: abolished p38 activation
[2]
  collagen contraction after EMT stimulation by TNFα: significantly reduced collagen contraction
[3]
  collagen lattice area relative to initial size: ~80%
[4]
  E-cadherin expression upon TGF-β1: allowing normal E-cadherin expression
[5]
  fibrotic effect resultant from the injury process (sprout growth): abolish the fibrotic effect
[6]; 1 μM for 1 hour then TGF-β 2.5 ng/ml
  Smad2/3 activation (phospho-Smad2/3): barely detectable
[6]; 1 μM, TGF-β1-stimulated, each time point
  ratio of phospho-Smad2/3 to total Smad2/3: abolished Smad2/3 activation
[7]
  Smad2/3 phosphorylation: significantly inhibited
